Legend:
SYK = SYK (Homo sapiens, UniProt P43405); experiment: biochemical; parameters: Kinase selectivity panel of 81 human kinases, ADP-Glo or HTRF, per cent inhibition at 1 uM
Method: (§1) We next sought to determine the binding affinity of Zharp1-163 for RIPK1 or RIPK3 via a binding assay (Fig. 4A). […] Further, we evaluated the selectivity of Zharp1-163 against a panel of 81 kinases (at 1000 nM). […] To elucidate the binding interactions between Zharp1-163 and RIPK1 kinase, we conducted molecular docking studies using the RIPK1 crystal structure (PDB ID: 4NEU). The predicted binding conformations and interaction patterns between Zharp1-163 and the RIPK1 kinase domain are presented in Fig. 4D, E. Like the cocrystallized ligand in the 4NEU crystal complex, Zharp1-163 was predicted to act as a typical type II kinase inhibitor, interacting with the DLG (Asp156-Leu157-Gly158)-out conformation of RIPK1 (Fig. 4D, E). The 2-aminoimidazo [1,2-a] pyridine moiety of Zharp1-163 formed hydrogen bonds with Met95 in the hinge region. Furthermore, the carboxylate group of Zharp1-163 established hydrogen bonds with Asp156 in the DLG-out region. Additionally, the saturated ring of Zharp1-163 was deeply embedded within the hydrophobic allosteric pocket formed by the residues Met66, Met67, Leu70, Val76, Leu129, and Leu159, which is created by the DLG-out conformation in RIPK1 (Fig. 4D, E).  Fig. 4 Zharp1-163 is a selective inhibitor of RIPK1 kinase activity. A Binding affinity curve of Zharp1-163 with RIPK1 and RIPK3. B In an in vitro kinase activity assay, recombinant RIPK1 was incubated with Zharp1-163, after which RIPK1 kinase activity was determined by measuring ATP levels via a luciferase reporter assay system. […] Kinases are marked with dots, where the color of each kinase indicates the level of inhibition achieved by Zharp1-163. D Predicted binding conformation of Zharp1-163. E Schematic representation of the interaction patterns between Zharp1-163 and the key residues in the binding pocket of the RIPK1 kinase. […] NIH3T3-RIPK3 cells were pretreated with the indicated concentrations of Zharp1-163 for 2 h and then treated with AP20187 (100 nM) for 24 h. Cell viability was determined by measuring ATP levels. […] HeLa-MLKL (1–190) cells were pretreated with the indicated concentrations of Zharp1-163 for 2 h and subsequently treated with AP20187 (100 nM) for 24 h. Cell viability was determined by measuring ATP levels. H Viability of IFNβ-primed MEFs at 18 h after stimulation with poly(I:C) plus z-VAD and treatment with Zharp1-163 (10 μM). I Effects of different concentrations of Zharp1-163 on WT or RIPK1 KO HT-29 cells. Cell viability was determined by measuring ATP levels. The data are presented as the mean ± SD of triplicate samples.

ROCK1 = ROCK1 (Homo sapiens, UniProt Q13464); experiment: biochemical; parameters: Kinase selectivity panel of 81 human kinases, ADP-Glo or HTRF, per cent inhibition at 1 uM
Method: as §1

CK1α = target: T1, CK1α (Homo sapiens, UniProt P48729); experiment: biochemical; parameters: Kinase selectivity panel of 81 human kinases, ADP-Glo or HTRF, per cent inhibition at 1 uM
T1 construct: gene CSNK1A1
Method: as §1

p38α = target: T2, p38α (Homo sapiens, UniProt Q16539); experiment: biochemical; parameters: Kinase selectivity panel of 81 human kinases, ADP-Glo or HTRF, per cent inhibition at 1 uM
T2 construct: gene MAPK14
Method: as §1

DCAMKL2 = target: T3, DCAMKL2 (Homo sapiens, UniProt Q8N568); experiment: biochemical; parameters: Kinase selectivity panel of 81 human kinases, ADP-Glo or HTRF, per cent inhibition at 1 uM
T3 construct: gene DCLK2
Method: as §1

RSK1 = target: T4, RSK1 (Homo sapiens, UniProt Q15418); experiment: biochemical; parameters: Kinase selectivity panel of 81 human kinases, ADP-Glo or HTRF, per cent inhibition at 1 uM
T4 construct: gene RPS6KA1
Method: as §1

PEK = target: T5, PEK (Homo sapiens, UniProt Q9NZJ5); experiment: biochemical; parameters: Kinase selectivity panel of 81 human kinases, ADP-Glo or HTRF, per cent inhibition at 1 uM
T5 construct: gene EIF2AK3
Method: as §1

WEE1 = WEE1 (Homo sapiens, UniProt P30291); experiment: biochemical; parameters: Kinase selectivity panel of 81 human kinases, ADP-Glo or HTRF, per cent inhibition at 1 uM
Method: as §1

HPK1 = target: T6, HPK1 (Homo sapiens, UniProt Q92918); experiment: biochemical; parameters: Kinase selectivity panel of 81 human kinases, ADP-Glo or HTRF, per cent inhibition at 1 uM
T6 construct: gene MAP4K1
Method: as §1

CDK5/p35NCK = target: T7, CDK5/p35NCK (Homo sapiens, UniProt Q00535); experiment: biochemical; parameters: Kinase selectivity panel of 81 human kinases, ADP-Glo or HTRF, per cent inhibition at 1 uM
T7 construct: p35NCK
Method: as §1

AXL = AXL (Homo sapiens, UniProt P30530); experiment: biochemical; parameters: Kinase selectivity panel of 81 human kinases, ADP-Glo or HTRF, per cent inhibition at 1 uM
Method: as §1

GAK = GAK (Homo sapiens, UniProt O14976); experiment: biochemical; parameters: Kinase selectivity panel of 81 human kinases, ADP-Glo or HTRF, per cent inhibition at 1 uM
Method: as §1

ALK4 = target: T8, ALK4 (Homo sapiens, UniProt P36896); experiment: biochemical; parameters: Kinase selectivity panel of 81 human kinases, ADP-Glo or HTRF, per cent inhibition at 1 uM
T8 construct: gene ACVR1B
Method: as §1

RIPK1 = RIPK1 (Homo sapiens, UniProt Q13546); experiment: ADP-Glo kinase assay with recombinant RIPK1 ([…] ATP, MBP substrate); binding curve also shown in Fig. 4A; assay type: biochemical

Chain of GAK (O14976 whole entry): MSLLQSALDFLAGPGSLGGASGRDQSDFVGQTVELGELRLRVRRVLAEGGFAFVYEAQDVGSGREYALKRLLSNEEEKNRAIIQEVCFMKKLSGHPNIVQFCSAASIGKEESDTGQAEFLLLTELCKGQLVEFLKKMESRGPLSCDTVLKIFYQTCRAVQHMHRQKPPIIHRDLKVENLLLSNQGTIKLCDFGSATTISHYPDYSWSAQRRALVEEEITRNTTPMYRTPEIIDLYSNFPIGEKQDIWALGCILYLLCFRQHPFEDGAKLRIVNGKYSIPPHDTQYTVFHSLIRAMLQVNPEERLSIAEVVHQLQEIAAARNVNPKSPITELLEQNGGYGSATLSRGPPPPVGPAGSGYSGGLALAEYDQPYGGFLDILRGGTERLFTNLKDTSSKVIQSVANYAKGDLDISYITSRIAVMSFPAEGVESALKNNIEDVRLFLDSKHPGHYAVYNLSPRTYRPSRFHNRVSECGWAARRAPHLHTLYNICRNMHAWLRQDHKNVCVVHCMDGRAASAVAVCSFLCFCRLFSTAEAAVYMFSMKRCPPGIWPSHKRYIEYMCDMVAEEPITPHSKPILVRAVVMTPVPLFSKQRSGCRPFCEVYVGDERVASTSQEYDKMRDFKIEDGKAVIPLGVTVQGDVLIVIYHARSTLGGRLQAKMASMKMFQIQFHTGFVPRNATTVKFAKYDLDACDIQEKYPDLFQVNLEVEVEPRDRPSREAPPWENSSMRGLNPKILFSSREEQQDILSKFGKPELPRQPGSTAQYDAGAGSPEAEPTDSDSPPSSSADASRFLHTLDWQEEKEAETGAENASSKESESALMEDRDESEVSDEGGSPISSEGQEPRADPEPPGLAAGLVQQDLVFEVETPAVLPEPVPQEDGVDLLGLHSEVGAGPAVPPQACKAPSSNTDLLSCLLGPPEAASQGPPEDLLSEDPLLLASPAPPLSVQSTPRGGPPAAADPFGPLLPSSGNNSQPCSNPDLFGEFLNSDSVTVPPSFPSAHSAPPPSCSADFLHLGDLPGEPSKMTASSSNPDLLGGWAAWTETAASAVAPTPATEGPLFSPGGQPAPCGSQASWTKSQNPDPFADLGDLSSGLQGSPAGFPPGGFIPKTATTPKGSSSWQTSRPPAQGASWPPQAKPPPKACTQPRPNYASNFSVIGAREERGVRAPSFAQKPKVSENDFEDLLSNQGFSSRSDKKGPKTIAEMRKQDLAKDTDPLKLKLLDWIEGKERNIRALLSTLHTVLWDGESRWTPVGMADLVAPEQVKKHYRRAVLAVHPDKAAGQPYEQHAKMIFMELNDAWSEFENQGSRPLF
T1 sequence (P48729 whole entry): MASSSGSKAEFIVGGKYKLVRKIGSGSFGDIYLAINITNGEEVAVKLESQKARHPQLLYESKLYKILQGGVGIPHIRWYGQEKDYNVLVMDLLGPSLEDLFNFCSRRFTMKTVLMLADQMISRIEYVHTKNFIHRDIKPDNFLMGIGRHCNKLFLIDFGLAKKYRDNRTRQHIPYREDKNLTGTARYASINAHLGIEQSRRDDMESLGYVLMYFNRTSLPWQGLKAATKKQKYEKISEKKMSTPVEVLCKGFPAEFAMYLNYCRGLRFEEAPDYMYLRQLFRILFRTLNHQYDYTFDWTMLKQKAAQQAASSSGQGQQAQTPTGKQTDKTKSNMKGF
T5 sequence (Q9NZJ5 whole entry): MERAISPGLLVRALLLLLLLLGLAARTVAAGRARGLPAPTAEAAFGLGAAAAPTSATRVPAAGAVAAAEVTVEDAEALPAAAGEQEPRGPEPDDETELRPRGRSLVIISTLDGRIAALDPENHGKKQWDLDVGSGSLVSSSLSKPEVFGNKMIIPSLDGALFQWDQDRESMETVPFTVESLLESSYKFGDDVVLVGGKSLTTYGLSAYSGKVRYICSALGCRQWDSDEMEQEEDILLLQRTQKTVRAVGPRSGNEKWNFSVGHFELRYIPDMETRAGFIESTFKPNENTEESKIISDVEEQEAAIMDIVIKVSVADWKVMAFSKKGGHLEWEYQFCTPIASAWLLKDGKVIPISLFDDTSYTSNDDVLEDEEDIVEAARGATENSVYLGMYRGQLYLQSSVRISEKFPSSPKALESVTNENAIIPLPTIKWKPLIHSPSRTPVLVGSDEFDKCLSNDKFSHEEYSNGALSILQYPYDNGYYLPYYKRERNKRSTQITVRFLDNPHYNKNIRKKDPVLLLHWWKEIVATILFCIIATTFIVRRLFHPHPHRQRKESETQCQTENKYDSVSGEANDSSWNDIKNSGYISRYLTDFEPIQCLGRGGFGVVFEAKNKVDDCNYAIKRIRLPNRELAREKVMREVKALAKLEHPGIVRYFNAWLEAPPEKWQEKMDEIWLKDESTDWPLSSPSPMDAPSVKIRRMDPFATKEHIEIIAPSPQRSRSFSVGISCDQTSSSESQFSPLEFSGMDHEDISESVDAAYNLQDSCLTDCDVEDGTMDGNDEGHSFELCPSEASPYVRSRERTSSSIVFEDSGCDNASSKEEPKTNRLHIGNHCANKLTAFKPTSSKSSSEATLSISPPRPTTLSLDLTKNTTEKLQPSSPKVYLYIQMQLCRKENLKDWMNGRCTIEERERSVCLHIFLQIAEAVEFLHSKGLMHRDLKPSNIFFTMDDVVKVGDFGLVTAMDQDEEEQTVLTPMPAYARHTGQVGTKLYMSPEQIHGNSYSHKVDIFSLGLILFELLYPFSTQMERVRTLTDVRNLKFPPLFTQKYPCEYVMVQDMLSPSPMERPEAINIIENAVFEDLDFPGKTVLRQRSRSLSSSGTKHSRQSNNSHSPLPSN
T4 sequence (Q15418 whole entry): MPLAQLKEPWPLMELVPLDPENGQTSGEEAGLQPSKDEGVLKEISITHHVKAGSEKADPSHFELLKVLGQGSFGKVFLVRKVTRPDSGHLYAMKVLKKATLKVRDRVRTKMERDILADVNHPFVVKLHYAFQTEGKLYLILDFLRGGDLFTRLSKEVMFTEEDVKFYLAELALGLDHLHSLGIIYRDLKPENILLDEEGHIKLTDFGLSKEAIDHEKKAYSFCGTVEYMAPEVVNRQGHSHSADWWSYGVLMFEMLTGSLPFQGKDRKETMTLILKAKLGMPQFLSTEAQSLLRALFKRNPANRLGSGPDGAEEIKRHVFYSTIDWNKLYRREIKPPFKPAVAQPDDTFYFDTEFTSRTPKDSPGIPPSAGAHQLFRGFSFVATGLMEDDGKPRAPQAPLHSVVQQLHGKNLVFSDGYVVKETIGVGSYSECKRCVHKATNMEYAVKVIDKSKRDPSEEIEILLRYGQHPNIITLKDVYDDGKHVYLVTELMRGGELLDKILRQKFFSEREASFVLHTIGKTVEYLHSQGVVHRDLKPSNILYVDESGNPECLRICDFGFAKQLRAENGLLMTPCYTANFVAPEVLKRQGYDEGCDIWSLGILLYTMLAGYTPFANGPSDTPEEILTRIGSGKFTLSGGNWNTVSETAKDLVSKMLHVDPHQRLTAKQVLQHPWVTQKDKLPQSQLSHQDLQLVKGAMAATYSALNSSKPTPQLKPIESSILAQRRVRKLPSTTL
Chain of WEE1 (P30291 whole entry): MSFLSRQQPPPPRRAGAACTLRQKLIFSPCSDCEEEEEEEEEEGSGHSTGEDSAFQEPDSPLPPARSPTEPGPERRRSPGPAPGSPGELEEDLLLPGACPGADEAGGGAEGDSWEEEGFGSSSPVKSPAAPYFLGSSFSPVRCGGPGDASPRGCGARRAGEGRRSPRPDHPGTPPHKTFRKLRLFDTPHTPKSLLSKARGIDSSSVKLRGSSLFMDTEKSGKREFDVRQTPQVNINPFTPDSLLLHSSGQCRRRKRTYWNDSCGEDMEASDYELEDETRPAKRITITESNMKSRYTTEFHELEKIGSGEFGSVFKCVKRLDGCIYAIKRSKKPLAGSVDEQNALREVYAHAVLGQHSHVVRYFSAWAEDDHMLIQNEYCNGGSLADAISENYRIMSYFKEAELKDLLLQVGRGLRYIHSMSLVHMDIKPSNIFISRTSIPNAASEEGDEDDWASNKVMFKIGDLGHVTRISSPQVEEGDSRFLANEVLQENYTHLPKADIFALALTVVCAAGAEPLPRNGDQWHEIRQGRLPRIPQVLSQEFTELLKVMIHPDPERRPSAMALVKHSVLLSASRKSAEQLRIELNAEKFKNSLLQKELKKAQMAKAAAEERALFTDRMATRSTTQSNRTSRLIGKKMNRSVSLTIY
T2 sequence (Q16539 whole entry): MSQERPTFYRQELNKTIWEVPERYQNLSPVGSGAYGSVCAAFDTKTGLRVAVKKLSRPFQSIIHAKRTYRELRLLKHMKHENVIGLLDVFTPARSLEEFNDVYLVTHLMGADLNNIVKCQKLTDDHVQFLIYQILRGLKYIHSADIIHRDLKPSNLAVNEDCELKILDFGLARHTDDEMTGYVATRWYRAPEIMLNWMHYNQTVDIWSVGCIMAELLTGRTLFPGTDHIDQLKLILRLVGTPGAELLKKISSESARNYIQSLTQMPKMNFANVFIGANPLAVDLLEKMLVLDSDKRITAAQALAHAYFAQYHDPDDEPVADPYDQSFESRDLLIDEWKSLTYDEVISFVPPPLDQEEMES
T8 sequence (P36896 whole entry): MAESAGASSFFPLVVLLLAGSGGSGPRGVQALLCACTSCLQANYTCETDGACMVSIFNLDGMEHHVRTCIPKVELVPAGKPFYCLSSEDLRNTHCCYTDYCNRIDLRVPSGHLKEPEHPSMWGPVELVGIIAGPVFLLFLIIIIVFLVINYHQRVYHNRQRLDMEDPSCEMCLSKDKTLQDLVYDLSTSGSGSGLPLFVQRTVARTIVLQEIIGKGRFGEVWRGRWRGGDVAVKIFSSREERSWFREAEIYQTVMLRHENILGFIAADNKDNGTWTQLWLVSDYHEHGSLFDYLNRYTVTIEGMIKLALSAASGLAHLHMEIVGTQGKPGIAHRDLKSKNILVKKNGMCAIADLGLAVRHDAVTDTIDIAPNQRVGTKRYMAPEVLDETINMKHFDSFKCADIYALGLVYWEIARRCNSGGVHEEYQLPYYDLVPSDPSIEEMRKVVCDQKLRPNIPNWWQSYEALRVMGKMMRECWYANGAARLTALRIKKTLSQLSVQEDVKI

inhibition at 1 µM (SYK; replicate Data1): 5.12%
inhibition at 1 µM (SYK; replicate Data2): 4.56%
inhibition at 1 µM (ROCK1; replicate Data1): 2.59%
inhibition at 1 µM (ROCK1; replicate Data2): 4.57%
inhibition at 1 µM (CK1α; replicate Data1): -4.65%
inhibition at 1 µM (CK1α; replicate Data2): -16.6%
inhibition at 1 µM (p38α; replicate Data1): 11.8%
inhibition at 1 µM (p38α; replicate Data2): 9.57%
inhibition at 1 µM (DCAMKL2; replicate Data1): 5.19%
inhibition at 1 µM (DCAMKL2; replicate Data2): 1.92%
inhibition at 1 µM (RSK1; replicate Data1): 6.09%
inhibition at 1 µM (RSK1; replicate Data2): 5.81%
inhibition at 1 µM (PEK; replicate Data1): 1.73%
inhibition at 1 µM (PEK; replicate Data2): 19.4%
inhibition at 1 µM (WEE1; replicate Data1): 9.26%
inhibition at 1 µM (WEE1; replicate Data2): 4.33%
inhibition at 1 µM (HPK1; replicate Data1): 17%
inhibition at 1 µM (HPK1; replicate Data2): 2.46%
inhibition at 1 µM (CDK5/p35NCK; replicate Data1): 7.89%
inhibition at 1 µM (CDK5/p35NCK; replicate Data2): 1.25%
inhibition at 1 µM (AXL; replicate Data1): 10.9%
inhibition at 1 µM (AXL; replicate Data2): 1.24%
inhibition at 1 µM (GAK; replicate Data1): 18.2%
inhibition at 1 µM (GAK; replicate Data2): 19.7%
inhibition at 1 µM (ALK4; replicate Data1): -1.47%
inhibition at 1 µM (ALK4; replicate Data2): -2.74%
IC50 (RIPK1): ~406 nM
Compound: Nc1cn2cc(-c3cnc4c(c3)N(C(=O)OC3CCCCC3)CCO4)ccc2n1 [Zharp1-163]
